In one assay the test system is cortical neurons. In words: glutamate-induced neuronal death in cultured cortical neurons. It is filed as cell-based, rats. The settings on record: 300 μM glutamate for 24 hours. On the procedure:
Primary cultured cells were used as a model to evaluate the subject small molecule effect on CNS. Glutamate neurotoxicity can be most directly studied using neurons prepared from the brain at the late embryonic stage and subsequently cultured for maturation. To examine the effect of the subject small molecules (E5A24 and E5A29) on glutamate-induced neuronal death, cortical neurons isolated from embryonic day 18 rats, were cultured for 10 days. Subsequently, neurons were treated for 24 hours with or without the subject small molecules, and further exposed to 300 μM glutamate for 24 hours. After glutamate was washed out, the cells were cultured for another 24 hours. During the glutamate challenge and subsequent culture, the subject small molecules were absent. Finally, the cell viability was examined. […] Experiments were performed according to the literature (Morishita et. al., Neuroscience 76, 105, 1997).

The test system of another assay is TF-1 and UT-7 cells. Briefly: biological testing in cell lines (cell proliferation and cell signaling). Type of assay: cell-based. The settings on record: biological testing in cell line. An excerpt: Compounds identified in the initial screen were further tested for their biological activity in two assays: a cell proliferation assay and a cell signaling assay in TF-1 and UT-7 cells. The hit rate in cell proliferation was 0.16%; hit rate in cell signaling was 0.25%.
Compounds identified in the initial screen were further tested for their biological activity in two assays: a cell proliferation assay and a cell signaling assay in TF-1 cells. The hit rate in cell proliferation was 0.16%; hit rate in cell signaling was 0.25%.

For another assay, the system named is TF-1 cells. In words: cell proliferation. It is filed as cell-based. The settings on record: 96 hours. The procedure: TF-1 cells were stimulated for 96 hours with different non-peptide EPO-R modulators, and it was observed that the non-peptide EPO binding molecules stimulated cellular proliferation in dose-responsive manner and to the extent of the natural hormone.

Assay [1] relates to EPO-Receptor down stream signaling pathway. In words: in vitro signaling (phosphorylation of EPO-R, JAK2, STAT1, STAT3, STAT5). Type of assay: cell-based. The settings on record: UT-7 cells. On the procedure:
UT-7 cells were grown in Minimal Essential Medium Alpha (MEM-α) containing 20% FBS, 1.5 g/L NaHCO3, 5 ng/ml GM-CSF, and 100U Penicillin/100 μg/ml Streptomycin Sulfate (“P/S”), in T150 flasks (60 ml/flask) at 37° C., 5% CO2 to a density of no more than 5×10^5 cells/ml. The cells were starved overnight in MEM-α containing 10% FBS, 1.5 g/L NaHCO3 and P/S in T150 flasks (60 ml/flask) at a density of 5×10^5 cells/ml, in 5% CO2, 37° C. The cells were then centrifuged in a swinging-bucket rotor at 200×g for 5 minutes at room temperature. The supernatant was removed, and the cells pooled into one 50 ml conical tube. The cells were washed twice with serum-free medium (MEM-α containing 1.5 g/L NaHCO3 and P/S). After the last wash, the cells were resuspended to a density of 1×10^7 cells/ml in serum-free medium. The cells were then placed in 15 ml conical tubes in 1 ml aliquots and incubated with the caps loosened for 1 hour at 37° C., 5% CO2. Every 10 minutes, the lower portion of each tube was tapped (flicked) several times to prevent the cells from settling (please note, this step is very important!)
It was also observed that EPO-R was phosphorylated when stimulated with non-peptide EPO-R modulators. (See FIG. 4) […]

The next assay concerns mouse bone marrow cells. Briefly: formation of erythroid colonies from mouse bone marrow in methylcellulose. It is filed as cell-based. The procedure:
(§1) Mouse or human bone marrow cells were stimulated in methylcellulose for 7 days (mouse) or 14 days (human) with non-peptide EPO-R modulators. Formation of erythroid colonies was observed. (See FIGS. 6 to 8)
Bone marrow cells were isolated from mouse femurs. Cells were washed twice with PBS and resuspended to a density of 6.5×10^6 cells/ml in media. 300 μl (6.5×10^5/ml) of cells were mixed with 1.5 ml of methylcellulose media (Stemcell Technology) to which the desired concentration of compound or the EPO was added. The mixture was poured onto 35 mm dishes; all the conditions are performed in duplicates. The incubation was for […] at 37° C., 5% CO2. The colonies were scored on day seven.
After thawing methylcellulose overnight, the next morning, 20 ml of Iscove's MDM+2%FBS is added to the bottle to achieve 100 ml total. The bottle is mixed for at least 30 seconds and settled for about 10 minutes. 10 cc syringes are used to aliquot 3 ml per minisorp tube.

A further assay has as its system human bone marrow cells. In words: formation of erythroid colonies from human bone marrow in methylcellulose. Type of assay: cell-based. The procedure:
as §1
(1) Dilute human bone marrow 1:1 with sterile PBS. (2) Slowly layer bone marrow into 50 ml tubes containing 20 ml of LSM Lymphocyte separation medium (ICN/Cappel—cat #50494). 50 ml bone marrow will yield 2 tubes. (3) Spin tubes at 2000 rpm for 30 minutes with brake off. (4) Slowly take out the middle layer using a 10 ml pipette and transfer into a new 50 ml tube. (5) Add PBS+0.5% BSA+5 mM EDTA to tube for washing. (6) Spin tube for 5 minutes at speed 4 with brake on. (7) Repeat wash step 2 more times. (8) After 3rd wash, resuspend pellet in SF Iscoves' MDM medium. (9) Count by diluting cells in 3% acetic acid. (10) Dilute cells to desired concentration (5×10^5 cells/ml) and seed onto methylcellulose.
(1) Tubes containing 3.0 ml of methylcellulose medium (Stemcell Technology, cat # H4230) supplemented with 50 ng/ml hSCF are prepared. (Alternatively the methylcellulose could be supplemented with 50 ng/ml hSCF, 20 ng/ml of hIL-3 and hIL-6). (2) Compounds or EPO of desired concentrations are added to the tubes. “Control” tubes or tubes that will receive EPO are supplemented with DMSO to a final concentration of 0.16%. […] Colonies are scored on day twelve.

The next assay concerns Bcl-xl protein. In words: up-regulation of Bcl-xl expression (immunoprecipitation, western blot). It is filed as cell-based. The procedure: When the subject compounds were tested for anti-apoptotic effect was evaluated, these antibodies were used: Anti-Bcl-X1/s antibody (Santa Cruz Biotechnology, SC-1041), Anti-Bcl-X1 antibody (Santa Cruz Biotechnology, SC8392)
A number of molecules of the subject invention were evaluated in in vitro systems that reflect the condition of cerebral ischemia and metabolic stress. Firstly, it is known that one of the mechanisms by which EPO prevents neuronal apoptosis is by up-regulating the expression levels of Bcl-x1 protein, which is a well-described anti-apoptotic protein. Thus, cells-lines that are known to be EPO responsive (UT-7 and TF-1, used in previous studies) were used as a cellular system to examine the small molecules' anti-apoptotic activity through EPO-R.
The evaluation was performed by starving the cells, stimulating the cells with compounds at appropriate concentrations (or no stimulation for control samples) and immunoprecipitating the cell lysates with antibody specific to both forms (short and long) of Bcl-x1 protein. The amount of Bcl-x1 (long protein form, known to have anti-apoptotic activity) protein was evaluated by western blot analysis.
A general note: Immunoblotting shows a protein as a band on a membrane.

For the next assay, the system named is P-19 cells. In words: cell survival of P-19 cells after withdrawal of serum. It is filed as cell-based. The settings on record: P19 cells; treated 24 hours before, serum withdrawn for 48 hours. The procedure:
Experiments were performed according to the described protocol. The anti-apoptotic effect of the subject small molecules was evaluated in P-19 cells (a neural-like embryonal carcinoma cell line) that undergo apoptosis upon withdrawal of serum. Briefly, cells were treated with small molecules for 24 hours prior to serum withdrawal. Serum was withdrawn for 48 hours in the presence or absence of a subject small molecule (EM5 and E5A24). At the end of that period, cell survival was evaluated. […] This Figure is representative of the experiment and of the subject small molecules. The experiments were performed according to literature procedures (Siren et.al., Proc. Nat. Acad. Sci. 98, 4044, 2001). Cell survival was determined according to the protocol described for cellular proliferation.

Entries after “also recorded” stand apart in the source; their conditions may differ.

In the case of `Cc1n[nH]c2c1C(c1ccco1)C1=C(CC(C)(C)CC1=O)N2` (centres unmarked) [Cmpnd E5A29], the “cell survival of cortical neurons after glutamate challenge” value in the assay on cortical neurons is given as “prevented glutamate induced neuronal death in a dose-responsive manner; also recorded: increased cell survival”. In addition, the “increase of cell survival” value in the assay with cortical neurons (cortical neurons) was 60%.
Take `Cc1ccc(Cl)cc1Nc1nc2nc(C)c(NCC3CC3)cn2n1` [Cmpnd E5]: the “maximum activity compared to EPO natural hormone” value with TF-1 and UT-7 cells is on record as “maximum activity comparable to that of the maximum activity of EPO”. Also, in the assay with TF-1 cells, the cellular proliferation entry is on record as “proliferative effect”. In assay [1], the “activation of EPO-R” value is on record as “activation of EPO-R”. Moreover, the “erythroid colony formation (CFU-e)” value with mouse bone marrow cells and in the assay with human bone marrow cells was “stimulate CFU-e formation to the same extent as EPO” in each case.
Take `Cn1ncc(S(=O)Oc2ccccc2)c(Cl)c1=O` (centres unmarked) [Cmpnd E6]: the “maximum activity compared to EPO natural hormone” value with TF-1 and UT-7 cells is “maximum activity comparable to that of the maximum activity of EPO”. Moreover, the “erythroid colony formation (CFU-e)” value with mouse bone marrow cells and in the assay with human bone marrow cells was “stimulate CFU-e formation to the same extent as EPO” each time.
For the compound `Cc1cc(NCC2CC2)n2nc(Nc3cc(Cl)ccc3C)nc2n1` [EM5], the Bcl-xl expression result in the assay with Bcl-xl protein (TF-1 cells) and with Bcl-xl protein (UT-7 cells) was “up-regulation of Bcl-xl expression” each time. The Bcl-x1 protein up-regulation result with Bcl-xl protein (both cell lines (UT-7 and TF-1)) was “induced up-regulation of Bcl-x1 protein in a dose-responsive manner”. For the same compound, in the assay on P-19 cells, the “cell viability / protection from apoptosis after withdrawal of serum” value is “protect cells from apoptosis; also recorded: increased cell viability”.
